# Data reported in US20200399242A1, “NOVEL COMPOUNDS” (INFLAZOME LIMITED, priority 2018, published 2020).
# pIC50: −log10 of the molar value. Structures can show the parent of a compound that is named as a salt.
# Molecular target: T1, NLRP3 (Homo sapiens, UniProt Q96P20)
# T1 construct: Seed THP-1 cells (25,000 cells/well) containing 1.0 μg/ml LPS in 40 μl of RPMI medium; host or cells: THP-1 cells
# Experiment: THP-1 cells pyroptosis assay (LPS-primed, nigericin-triggered, resazurin read-out)
# Format: cell-based
# Settings: 1 μg/ml LPS, compound 3 hrs, nigericin 5 μM 1 hr, resazurin viability
# Method: THP-1 cells (ATCC #TIB-202) were grown in RPMI containing L-glutamine (Gibco #11835) supplemented with 1 mM sodium pyruvate (Sigma #S8636) and penicillin (100 units/ml)/streptomycin (0.1 mg/ml) (Sigma #P4333) in 10% Fetal Bovine Serum (FBS) (Sigma #F0804). The cells were routinely passaged and grown to confluency (˜10^6 cells/ml). On the day of the experiment, THP-1 cells were harvested and resuspended into RPMI medium (without FBS). The cells were then counted and viability (>90%) checked by Trypan blue (Sigma #T8154). Appropriate dilutions were made to give a concentration of 625,000 cells/ml. To this diluted cell solution was added LPS (Sigma #L4524) to give a 1 μg/ml Final Assay Concentration (FAC). 40 μl of the final preparation was aliquoted into each well of a 96-well plate. The plate thus prepared was used for compound screening. The following method step-by-step assay was followed for compound screening. • 1. Seed THP-1 cells (25,000 cells/well) containing 1.0 μg/ml LPS in 40 μl of RPMI medium (without FBS) in 96-well, black walled, clear bottom cell culture plates coated with poly-D-lysine (VWR #734-0317) • 2. Add 5 μl compound (8 points half-log dilution, with 10 μM top dose) or vehicle (DMSO 0.1% FAC) to the appropriate wells • 3. Incubate for 3 hrs at 37° C., 5% CO2 • 4. Add 5 μl nigericin (Sigma #N7143) (FAC 5 μM) to all wells • 5. Incubate for 1 hr at 37° C., 5% CO2 • 6. At the end of the incubation period, spin plates at 300×g for 3 mins and remove supernatant • 7. Then add 50 μl of resazurin (Sigma #R7017) (FAC 100 μM resazurin in RPMI medium without FBS) and incubate plates for a further 1-2 hrs at 37° C. and 5% CO2 • 8. Plates were read in an Envision reader at Ex 560 nm and Em 590 nm • 9. IC50 data is fitted to a non-linear regression equation (log inhibitor vs response-variable slope 4-parameters) The results of the pyroptosis assay are summarised in Table 1 below as THP IC50.
# T1 sequence (Q96P20 whole entry): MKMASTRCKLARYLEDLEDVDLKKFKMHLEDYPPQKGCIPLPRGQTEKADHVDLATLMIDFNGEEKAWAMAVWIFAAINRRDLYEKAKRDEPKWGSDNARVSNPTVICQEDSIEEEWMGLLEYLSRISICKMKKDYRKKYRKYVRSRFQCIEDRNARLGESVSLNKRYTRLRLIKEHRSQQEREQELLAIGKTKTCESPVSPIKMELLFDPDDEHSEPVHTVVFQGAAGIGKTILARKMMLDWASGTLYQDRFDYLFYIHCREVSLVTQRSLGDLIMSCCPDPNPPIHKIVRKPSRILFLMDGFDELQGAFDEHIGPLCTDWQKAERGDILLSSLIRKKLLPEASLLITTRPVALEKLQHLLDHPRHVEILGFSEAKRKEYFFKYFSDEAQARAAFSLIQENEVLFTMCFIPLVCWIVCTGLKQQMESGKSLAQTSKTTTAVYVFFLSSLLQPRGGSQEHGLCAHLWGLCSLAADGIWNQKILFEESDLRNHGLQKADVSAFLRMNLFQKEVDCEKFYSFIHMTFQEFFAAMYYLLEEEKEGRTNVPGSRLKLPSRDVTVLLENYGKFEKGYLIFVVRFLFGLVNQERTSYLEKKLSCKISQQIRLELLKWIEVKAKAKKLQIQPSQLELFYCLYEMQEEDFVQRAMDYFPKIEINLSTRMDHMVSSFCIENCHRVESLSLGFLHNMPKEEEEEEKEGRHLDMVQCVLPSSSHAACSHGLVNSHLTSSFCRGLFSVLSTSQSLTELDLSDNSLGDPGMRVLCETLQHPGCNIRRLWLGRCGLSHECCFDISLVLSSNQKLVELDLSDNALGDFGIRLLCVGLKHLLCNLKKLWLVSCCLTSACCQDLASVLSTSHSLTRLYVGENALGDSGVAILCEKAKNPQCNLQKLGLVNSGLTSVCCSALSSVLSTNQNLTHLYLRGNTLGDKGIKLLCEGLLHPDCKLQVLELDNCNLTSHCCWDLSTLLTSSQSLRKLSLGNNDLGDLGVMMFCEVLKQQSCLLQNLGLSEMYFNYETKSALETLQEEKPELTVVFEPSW
row,SMILES,pIC50
1,"COc1cc(-c2cc(F)cc(C(C)C)c2CC(=O)NS(=O)(=O)c2ccc(=O)n(C)c2)ccn1 [Example 1, 2-(4-Fluoro-2-isopropyl-6-(2-methoxypyridin-4-yl)phenyl)-N-((1-methyl-6-oxo-,6-dihydropyridin-3-yl)sulfonyl)acetamide, potassium salt]",5.00 to 5.30
2,"COc1cc(-c2cc(F)cc(C(C)C)c2CC(=O)NS(=O)(=O)c2ccc(=O)n(C(C)C)c2)ccn1 [Example 2, 2-(4-Fluoro-2-isopropyl-6-(2-methoxypyridin-4-yl)phenyl)-N-((1-isopropyl-6-oxo-1,6-dihydropyridin-3-yl)sulfonyl)acetamide, potassium salt]",5.30 to 6.00
3,"COc1cc(-c2cc(F)cc(C(C)C)c2CC(=O)NS(=O)(=O)c2cn(C)c(=O)n(C)c2=O)ccn1 [Example 3, N-((1,3-Dimethyl-2,4-dioxo-1,2,3,4-tetrahydropyrimidin-5-yl)sulfonyl)-2-(4-fluoro-2-isopropyl-6-(2-methoxypyridin-4-yl)phenyl) acetamide]",≥ 6.00
